Experimental findings from patent US12696902B2, “Pesticidal pyrazole and triazole derivatives” (priority 2019, dated 2026) are described below.

Assay type in all cases: in vivo
For assay [1], the system named is Yellow Fever Mosquito (Aedes aegypti). As to the kind of experiment: whole plant or invertebrate. The conditions noted are these: 48 h, freshly hatched A. aegypti larvae, larval mortality visually assessed after 2 days, read-out: mortality in comparison with untreated controls. The method, then: For evaluating control of yellow fever mosquito (Aedes aegypti) the test unit consisted of 96-well-microtiter plates containing 200 μl of tap water per well and 5-15 freshly hatched A. aegypti larvae.
The active compounds or mixtures were formulated using a solution containing 75% (v/v) water and 25% (v/v) DMSO. Different concentrations of formulated compounds or mixtures were sprayed onto the insect diet at 2.5 μl, using a custom built micro atomizer, at two replications. For experimental mixtures in these tests identical volumes of both mixing partners at the desired concentrations respectively, were mixed together.
After application, microtiter plates were incubated at 28±1° C., 80±15% RH for 2 days. Larval mortality was then visually assessed.

Assay [2] concerns Boll Weevil (Anthonomus grandis). As to the kind of experiment: Action on boll weevil, egg and larval mortality on insect diet in microtiter plates. The conditions noted are these: 120 h, A. grandis eggs on insect diet, egg and larval mortality after 5 days, read-out: mortality in comparison with untreated controls. The method, then: For evaluating control of boll weevil (Anthonomus grandis) the test unit consisted of 96-well-microtiter plates containing an insect diet and 5-10 A. grandis eggs.
The compounds were formulated using a solution containing 75% (v/v) water and 25% (v/v) DMSO. Different concentrations of formulated compounds were sprayed onto the insect diet at 5 μl, using a custom built micro atomizer, at two replications.
After application, microtiter plates were incubated at about 25+1° C. and about 75+5% relative humidity for 5 days. Egg and larval mortality were then visually assessed.

Assay [3] has as its system Tobacco Budworm (Heliothis virescens). Nature of the assay: Action on tobacco budworm, egg and larval mortality on insect diet in microtiter plates. The conditions noted are these: 120 h, H. virescens eggs on insect diet, egg and larval mortality after 5 days, read-out: mortality in comparison with untreated controls. As for the experimental part:
For evaluating control of tobacco budworm (Heliothis virescens) the test unit consisted of 96-well-microtiter plates containing an insect diet and 15-25 H. virescens eggs.
The compounds were formulated using a solution containing 75% v/v water and 25% v/v DMSO. Different concentrations of formulated compounds were sprayed onto the insect diet at 10 μl, using a custom built micro atomizer, at two replications.
After application, microtiter plates were incubated at about 28+1° C. and about 80+5% relative humidity for 5 days. Egg and larval mortality were then visually assessed.

In assay [4] the test system is Diamond Back Moth (Plutella xylostella). Nature of the assay: Action on diamond back moth, cabbage leaf dip. To be noted: foliar, 3rd instar larvae on dipped cabbage leaves, 72 hours after treatment, read-out: mortality in comparison with untreated controls. As for the experimental part:
The active compound is dissolved at the desired concentration in a mixture of 1:1 (v/v) distilled water:acetone. Surfactant (Kinetic® HV) is added at a rate of 0.01% (v/v). The test solution is prepared at the day of use.
Leaves of cabbage were dipped in test solution and air-dried. Treated leaves were placed in petri dishes lined with moist filter paper and inoculated with ten 3rd instar larvae. Mortality was recorded 72 hours after treatment. Feeding damages were also recorded using a scale of 0-100%.

Assay [5] concerns Southern Armyworm (Spodoptera eridania), 2nd Instar Larvae. As to the kind of experiment: Action on southern armyworm 2nd instar larvae on sprayed lima bean plants. The conditions noted are these: 96 h, 4 days after treatment, read-out: mortality in comparison with untreated controls. The method, then: The active compounds were formulated by a Tecan liquid handler in 100% cyclohexanone as a 10,000 ppm solution supplied in tubes. The 10,000 ppm solution was serially diluted in 100% cyclohexanone to make interim solutions. These served as stock solutions for which final dilutions were made by the Tecan in 50% acetone:50% water (v/v) into 10 or 20 ml glass vials. A nonionic surfactant (Kinetic®) was included in the solution at a volume of 0.01% (v/v). The vials were then inserted into an automated electrostatic sprayer equipped with an atomizing nozzle for application to plants/insects.
Lima bean plants (variety Sieva) were grown 2 plants to a pot and selected for treatment at the 1st true leaf stage. Test solutions were sprayed onto the foliage by an automated electrostatic plant sprayer equipped with an atomizing spray nozzle. The plants were dried in the sprayer fume hood and then removed from the sprayer. Each pot was placed into perforated plastic bags with a zip closure. About 10 to 11 armyworm larvae were placed into the bag and the bags zipped closed. Test plants were maintained in a growth room at about 25° C. and about 20-40% relative humidity for 4 days, avoiding direct exposure to fluorescent light (24 hour photoperiod) to prevent trapping of heat inside the bags. Mortality and reduced feeding were assessed 4 days after treatment, compared to untreated control plants.

Assay [6] deals with Orchid Thrips (Dichromothrips corbetti). As to the kind of experiment: Action on orchid thrips, floral-immersion technique. To be noted: adult thrips, 72 hours after treatment, read-out: mortality in comparison with untreated controls. The method, then:
Dichromothrips corbetti adults used for bioassay were obtained from a colony maintained continuously under laboratory conditions. For testing purposes, the test compound is diluted in a 1:1 mixture of acetone:water (vol:vol), plus Kinetic® HV at a rate of 0.01% v/v.
Thrips potency of each compound was evaluated by using a floral-immersion technique. All petals of individual, intact orchid flowers were dipped into treatment solution and allowed to drying Petri dishes. Treated petals were placed into individual re-sealable plastic along with about 20 adult thrips. All test arenas were held under continuous light and a temperature of about 28° C. for duration of the assay. After 3 days, the numbers of live thrips were counted on each petal. The percent mortality was recorded 72 hours after treatment.

The structures appear in SMILES notation.

Take `Cc1cc(/C=N/N2C(=O)CS/C2=N\c2ccccc2C(C)C)ccc1-n1cc(NC(=O)c2ccc(OC(F)(F)F)cc2)c(C)n1` [Compound C-11, N-[1-[4-[(E)-[(2Z)-2-(2-isopropylphenyl)imino-4-oxo-thiazolidin-3-yl]iminomethyl]-2-methyl-phenyl]-3-methyl-pyrazol-4-yl]-4-(trifluoromethoxy)benzamide]: the mortality (commonly the share of the test organisms that died) at 800 ppm in assay [1] is ≥ 50%; in assay [2], ≥ 75%; in assay [3], ≥ 75%. Besides, in assay [4], the mortality at 500 ppm is ≥ 75%. Besides, in assay [5], the mortality at 300 ppm is ≥ 75%.
As for `Cc1nn(-c2ccc(/C=N/NC(=S)Nc3ccccc3C(C)C)cc2)cc1NC(=O)c1ccc2c(c1)OC(F)(F)O2` [Compound C-16, 2,2-difluoro-N-[1-[4-[(E)-[(2-isopropylphenyl)carbamothioylhydrazono]methyl]phenyl]-3-methyl-pyrazol-4-yl]-1,3-benzodioxole-5-carboxamide], the mortality at 800 ppm in assay [1] was ≥ 50%; in assay [2], ≥ 75%; in assay [3] it was ≥ 75%. The mortality at 500 ppm in assay [6] and in assay [4] was ≥ 75% throughout. In addition, the mortality at 300 ppm in assay [5] is ≥ 75%.
For `Cc1nn(-c2ccc(/C=N/N=C3\SCC(=O)N3c3ccccc3C(C)C)cc2)cc1NC(=O)c1ccc2c(c1)OC(F)(F)O2` [Compound C-17, 2,2-difluoro-N-[1-[4-[(E)-[(Z)-[3-(2-isopropylphenyl)-4-oxo-thiazolidin-2-ylidene]hydrazono]methyl]phenyl]-3-methyl-pyrazol-4-yl]-1,3-benzodioxole-5-carboxamide], the figures for the mortality at 800 ppm in assay [1], in assay [2] and in assay [3] were ≥ 50%, ≥ 75% and ≥ 75%, respectively. For the same compound, the mortality at 500 ppm in assay [4] was ≥ 75%. Also, the mortality at 300 ppm in assay [5] is ≥ 75%.
With `Cc1nn(-c2ccc(/C=N/NC(=S)Nc3ccccc3C(C)C)cc2)cc1C(=N)Nc1ccc(OC(F)(F)F)cc1` [Compound C-52, 1-(2-isopropylphenyl)-3-[(E)-[4-[3-methyl-4-[N-[4-(trifluoromethoxy)phenyl]carbamimidoyl]pyrazol-1-yl]phenyl]methyleneamino] thiourea], the mortality at 800 ppm is ≥ 50% in assay [1], ≥ 75% in assay [2] and ≥ 75% in assay [3]. Moreover, the mortality at 500 ppm in assay [6] and in assay [4] was ≥ 75% in each case. In addition, the mortality at 300 ppm in assay [5] was ≥ 75%.
In the case of `Cc1nn(-c2ccc(/C=N/N3C(=O)CS/C3=N\c3ccccc3C(C)C)cc2)cc1C(=N)Nc1ccc(OC(F)(F)F)cc1` [Compound C-53, 1-[4-[(E)-[(2Z)-2-(2-isopropylphenyl)imino-4-oxo-thiazolidin-3-yl]iminomethyl]phenyl]-3-methyl-N-[4-(trifluoromethoxy)phenyl]pyrazole-4-carboxamidine], the mortality at 800 ppm in assay [1] was ≥ 50%; in assay [2], ≥ 75%; in assay [3], ≥ 75%. Moreover, the mortality at 500 ppm in assay [4] was ≥ 75%. The mortality at 300 ppm in assay [5] was ≥ 75%.
